Tested on: tumor that expresses high levels of CXCL12
Assay: Tumor growth in mice with a subcutaneous CXCL12-expressing tumor, AMD3100 followed by cisplatin
Assay type: in vivo
Procedure: Mice are injected with tumor cells (subcutaneous injection) from a tumor that expresses high levels of CXCL12 and a tumor allowed to develop. Once the tumor has formed, the mice are injected (subcutaneous in the same flank as the tumor) with AMD3100 or vehicle, once a day for 5 days.
One to three days after the final dose of AMD3100, mice are injected via intraperitoneal injection with a therapeutically effective amount of cisplatin 18 hours prior to assay of tumor growth.

Compound: N.N.[Cl][Pt][Cl] [cisplatin]
- Tumor growth (cisplatin intraperitoneal 18 hours prior to assay, growth resumes soon after treatment is discontinued in mice not administered AMD3100): delayed

Compound: c1cc(CN2CCCNCCNCCCNCC2)ccc1CN1CCCNCCNCCCNCC1 [AMD3100]
- Delay in tumor growth, co-treatment versus cisplatin alone (AMD3100 subcutaneous once a day for 5 days, then cisplatin intraperitoneal one to three days after the final dose): synergistic effect

From patent US20180117005A1, “COMPOSITIONS FOR THE TREATMENT OF CANCER” (THE GENERAL HOSPITAL CORPORATION, priority 2015, published 2018)
